PubChem BioAssay AID608 (Sanford-Burnham Center for Chemical Genomics, 2007)
Active and inactive are the calls of the source. No rule for the calls is given here.

These molecules were tested against Peptidyl-prolyl cis-trans isomerase FKBP1A (Homo sapiens) (UniProt P62942) (assay: FKBP12 binders, biophysical, NMR detection (AID 608)). Conditions: NMR binding, purified FKBP12.
Chain of Peptidyl-prolyl cis-trans isomerase FKBP1A (Homo sapiens) (P62942 whole entry, looked up): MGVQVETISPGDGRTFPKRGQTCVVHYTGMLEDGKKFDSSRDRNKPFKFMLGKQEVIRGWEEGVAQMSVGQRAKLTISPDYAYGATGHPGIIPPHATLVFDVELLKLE
For `c1ccc(SCc2nc(-c3ccccn3)no2)cc1`, the Kd was > 4 mM (inactive). `Oc1cc2c(cc1O)C1c3ccc(O)c(O)c3OCC1(O)C2` (stereo not given) was tested, and the Kd was > 4 mM (inactive). In the case of `O=C(O)C1CC(=O)N(Cc2ccc(F)cc2)C1` (stereo not given), the Kd is reported as > 4 mM (inactive). With `O=[N+]([O-])c1cccc(CN2CCC(O)CC2)c1` the Kd was > 4 mM (inactive). In the case of `Cc1cc(C)nc(/N=C(/N)N2CCOCC2)n1`, the Kd is reported as > 4 mM (inactive). `CS(=O)(=O)Nc1cc2c3c(c1)CCN3C(=O)CC2` was tested, and the Kd was > 4 mM (inactive). `COc1ccccc1-c1cn[nH]c(=S)n1` was tested, and the Kd was > 4 mM (inactive). With `CC1=CCc2c(cc3oc(C)cc(=O)c3c2O)OC1` the Kd was > 4 mM (inactive). With `Cc1onc(-c2c(F)cccc2Cl)c1C(N)=O` the Kd was > 4 mM (inactive). In the case of `CCOC(=O)c1snnc1-c1ccccc1`, the Kd is reported as > 4 mM (inactive). For `CC(C)(C(N)=O)/[N+]([O-])=C\c1ccccc1`, the Kd was > 4 mM (inactive). In the case of `O=C1C2CCCCC2C(=O)N1Cc1cccnc1` (stereo not given), the Kd is reported as > 4 mM (inactive). With `Cn1ncc2c(=O)n(CC(=O)c3ccccc3)cnc21` the Kd was > 4 mM (inactive). For `C(=Nn1cnnc1)c1ccccc1`, the Kd was > 4 mM (inactive). For `COC(=O)C[C@H]1C(C)(C)C(=O)[C@@H]2CC3=C4CC(=O)O[C@@H](c5ccoc5)[C@]4(C)CCC3C1(C)C2=O` (stereo not given in full), the Kd was > 4 mM (inactive). With `Cc1oc2nc3c(c(=O)[nH]c(=O)n3C)n2c1C` the Kd was > 4 mM (inactive). For `CCn1ccc(C(=O)Nc2nccs2)n1`, the Kd was > 4 mM (inactive). With `O=C(/C(=N\O)n1cncn1)c1ccccc1Cl` the Kd was > 4 mM (inactive). With `CN1CCn2c1nc(N1CCOCC1)nc2=O` the Kd was > 4 mM (inactive). For `O=C(O[C@@H]1Cc2c(O)cc(O)cc2O[C@@H]1c1ccc(O)c(O)c1)c1cc(O)c(O)c(O)c1`, the Kd was > 4 mM (inactive). For `COC(=O)/C(=C1\OC(=O)C(c2ccccc2)C1=O)c1ccccc1` (stereo not given), the Kd was > 4 mM (inactive). With `Cc1ccc(SCc2nc(-c3ccncc3)no2)cc1` the Kd was “inactive”. With `O=C(Nc1ccon1)c1ccc2c(c1)OCO2` the Kd was > 4 mM (inactive). With `O=C(Nc1ccon1)c1ccc(Br)o1` the Kd was > 4 mM (inactive). For `O=C(Nc1cccc(C(F)(F)F)c1)c1cccnc1`, the Kd was > 4 mM (inactive). In the case of `O=C(CC1SC(=O)NC1=O)Nc1nccs1` (stereo not given), the Kd is reported as > 4 mM (inactive). With `Cc1occc1C(=O)Nc1ccc2c(c1)CCC2` the Kd was > 4 mM (inactive). In the case of `O=C(O)CC1NCCNC1=O` (stereo not given), the Kd is reported as > 4 mM (inactive). In the case of `CC1O[C@@H](Oc2c(-c3ccc(O)c(O)c3)oc3cc(O)cc(O)c3c2=O)[C@H](O)[C@H](O)[C@H]1O` (stereo not given in full), the Kd is reported as > 4 mM (inactive). With `NC(=O)c1cc(N)ccc1N1CCCCC1` the Kd was > 4 mM (inactive). With `CCOc1ccc(C(=O)c2ccc(OC)c(O)c2O)cc1` the Kd was > 4 mM (inactive). For `O=C1CCC(=O)N1CNc1ccccc1`, the Kd was > 4 mM (inactive). With `OC1CCN(Cc2ccc[nH]2)CC1` the Kd was > 4 mM (inactive). With `CC(C)(C)c1cc(NC(=O)c2cccnc2)no1` the Kd was > 4 mM (inactive). In the case of `CCP(=O)(CC)c1cccc(C)c1`, the Kd is reported as > 4 mM (inactive). With `O=c1n(-c2cccc(Cl)c2)c(=O)n2n1CCC2` the Kd was > 4 mM (inactive). In the case of `O=C(O)c1ccc(N2CCCCC2)cc1`, the Kd is reported as > 4 mM (inactive). `O=c1[nH]c(O)c(C=NC2CC2)c(=O)[nH]1` was tested, and the Kd was > 4 mM (inactive). With `COc1ccc(C[C@H]2NC[C@H](O)[C@H]2OC(C)=O)cc1` the Kd was > 4 mM (inactive). In the case of `O=C(O)/C=C/C=C/c1ccccc1`, the Kd is reported as > 4 mM (inactive). For `Nc1scc[n+]1CC(=O)[O-]`, the Kd was > 4 mM (inactive). For `O=C(O)CCC(=O)Nc1ccccc1F`, the Kd was > 4 mM (inactive). For `OCC1CCCN2CCCCC12` (stereo not given), the Kd was > 4 mM (inactive). With `O=C(O)Cc1c[nH]c2ccccc12` the Kd was > 4 mM (inactive). With `OCC1COc2ccccc2O1` (stereo not given) the Kd was > 4 mM (inactive). With `CN1CCC(NC(=S)NC2CC2)CC1` the Kd was > 4 mM (inactive). For `O=C(O[C@@H]1Cc2c(O)cc(O)cc2O[C@@H]1c1cc(O)c(O)c(O)c1-c1c([C@H]2Oc3cc(O)cc(O)c3C[C@H]2O)cc(O)c(O)c1O)c1cc(O)c(O)c(O)c1`, the Kd was > 4 mM (inactive). In the case of `CCc1nnc(NC(C)=O)s1`, the Kd is reported as > 4 mM (inactive). In the case of `[O-][n+]1onc2c1CCc1c-2nc(-c2ccccc2)n1O`, the Kd is reported as > 4 mM (inactive). For `COC(=O)N1CCN(c2ccc(C(C)=O)cc2)CC1`, the Kd was > 4 mM (inactive). For `Cc1cc(C)n(-c2nc(C)nc(N)n2)n1`, the Kd was > 4 mM (inactive). For `CC(=O)/C=C\[C@@H]1[C@@]2(C)CCCC(C)(C)C2CC[C@@]1(C)O` (stereo not given in full), the Kd was > 4 mM (inactive). For `COC(=O)C(O)[C@@H]1C2(C)C(=O)[C@@H](CC3=C4CC(=O)O[C@@H](c5ccoc5)[C@]4(C)CCC32)[C@H](OC(C)=O)C1(C)C` (stereo not given in full), the Kd was > 4 mM (inactive). `O=C(Nc1cnccn1)c1ccncc1` was tested, and the Kd was > 4 mM (inactive). `COc1cc2c(cc1OC)[C@@H]1C(=O)c3ccc4c(c3O[C@@H]1CO2)C=CC(C)(C)O4` was tested, and the Kd was > 4 mM (inactive). For `Cn1nnc2c(N3CCC(C(N)=O)CC3)ncnc21`, the Kd was > 4 mM (inactive). For `CN(C)Cc1c(N)cccc1O`, the Kd was > 4 mM (inactive). For `O=C(NCc1ccco1)c1nc2ncccn2n1`, the Kd was > 4 mM (inactive). In the case of `Cc1ccc(C(=O)NCCO)c(Cl)c1`, the Kd is reported as > 4 mM (inactive). In the case of `O=C1CCC(=O)N1CN1CCOCC1`, the Kd is reported as > 4 mM (inactive). In the case of `COc1cc(C(=S)N2CCCC2)cc(Cl)c1O`, the Kd is reported as > 4 mM (inactive). In the case of `C[C@@H]1O[C@@H](O[C@H]2[C@@H](Oc3cc(O)c4c(c3)O[C@H](c3ccc(O)cc3)CC4=O)O[C@H](CO)[C@@H](O)[C@@H]2O)[C@H](O)[C@H](O)[C@H]1O`, the Kd is reported as > 4 mM (inactive). For `Cc1cc(C)n(/N=C\c2cccs2)c(=O)c1C(N)=O`, the Kd was > 4 mM (inactive). With `O=C(O)c1cccc(-n2cccc2)c1` the Kd was > 4 mM (inactive). For `Cc1ccccc1C(=O)Nn1cnnc1`, the Kd was > 4 mM (inactive). `COC(=O)CCSCC(=O)Nc1nnc(C)s1` was tested, and the Kd was > 4 mM (inactive). For `Fc1cc2nccnc2cc1N1CCSCC1`, the Kd was > 4 mM (inactive). With `O=C(c1ccccc1)c1cncc(Br)c1` the Kd was > 4 mM (inactive). `C[C@]12C=CC(=O)C=C1CCC1C2CC[C@]2(C)C(=O)CCC12` (stereo not given in full) was tested, and the Kd was > 4 mM (inactive). For `Cc1ccc(C(=O)Nn2cnnc2)c(Cl)c1`, the Kd was > 4 mM (inactive). With `Cc1nn2c(-c3ccncc3)nnc2c2ccccc12` the Kd was > 4 mM (inactive). `O=C1C=CC(=O)N1c1ccc(N2CCOCC2)cc1` was tested, and the Kd was > 4 mM (inactive). For `CCc1sc(C(=O)NC)cc1Br`, the Kd was > 4 mM (inactive). With `O=S1(=O)CCC(NC(=S)Nc2ccc(O)cc2)C1` (stereo not given) the Kd was > 4 mM (inactive). With `CN1C(CC(=O)c2ccccc2)CCCC1CC(O)c1ccccc1` (stereo not given) the Kd was > 4 mM (inactive). In the case of `O=C(O)CCCC(=O)Nc1nccs1`, the Kd is reported as > 4 mM (inactive). `CC(C)CC(=O)Nc1c[nH]c(=O)[nH]c1=O` was tested, and the Kd was > 4 mM (inactive). In the case of `Cn1c(O)c(/C=C2\C=CC=N2)c(=O)[nH]c1=O`, the Kd is reported as > 4 mM (inactive). In the case of `Nc1ccc(Cc2ccc(N)cc2)cc1`, the Kd is reported as > 4 mM (inactive). For `Nc1nc(-c2ccc(O)cc2)cs1`, the Kd was > 4 mM (inactive). `O=c1c(O)c(-c2ccccc2)oc2ccccc12` was tested, and the Kd was > 4 mM (inactive). `O=C(CSc1ncn[nH]1)c1ccccc1` was tested, and the Kd was > 4 mM (inactive). In the case of `c1ccc(-n2ncc3c(NCc4ccco4)ncnc32)cc1`, the Kd is reported as > 4 mM (inactive). In the case of `COC(=O)C1=CO[C@@H](O[C@@H]2O[C@H](CO)[C@@H](O)[C@H](O)[C@H]2O)[C@@H]2[C@@H](C)[C@@H](O)C[C@H]12`, the Kd is reported as > 4 mM (inactive). `O=C(Nc1ccon1)c1cc2c(s1)CCCC2` was tested, and the Kd was > 4 mM (inactive). For `COc1ccc(/C=C2/SC(N)=NC2=O)c(OC)c1`, the Kd was > 4 mM (inactive). `CC[C@H](CCC(C)[C@H]1CCC2C3CCC4C[C@@H](O)CC[C@]4(C)C3CC[C@@]21C)C(C)C` (stereo not given in full) was tested, and the Kd was > 4 mM (inactive). `O=C(O)C1CCN(c2ccc(C(F)(F)F)cn2)CC1` was tested, and the Kd was > 4 mM (inactive). `O=C(O)c1ccccc1C(=O)Nc1ccccc1` was tested, and the Kd was > 4 mM (inactive). In the case of `CCNC(CC(=O)Nc1ccc(F)cc1)C(=O)O` (stereo not given), the Kd is reported as > 4 mM (inactive). In the case of `Cc1csc(NC(=O)c2ccoc2C)n1`, the Kd is reported as > 4 mM (inactive). With `COc1cccc(=O)c2c(C)n(C)c(C)c12` the Kd was > 4 mM (inactive). `O=C1NCCCC1C(=O)N1CCCCC1` (stereo not given) was tested, and the Kd was > 4 mM (inactive). With `O=C(c1ccncc1)N1CCN(C(=O)c2ccncc2)CC1` the Kd was > 4 mM (inactive). With `CCOc1ccc2ccccc2c1C(=O)N1CCOCC1` the Kd was > 4 mM (inactive). In the case of `COc1ccccc1NC(=O)c1snnc1C`, the Kd is reported as > 4 mM (inactive). In the case of `COC(=O)Cc1cc(=O)n(-c2nc3ccccc3s2)[nH]1`, the Kd is reported as > 4 mM (inactive). `NC(=O)C1CCN(CN2C(=O)c3ccccc3C2=O)CC1` was tested, and the Kd was > 4 mM (inactive). With `Cn1[nH]c(C(F)(F)F)cc1=O` the Kd was > 4 mM (inactive). With `Nc1nc(NCc2ccco2)nn1-c1ccccc1` the Kd was > 4 mM (inactive). In the case of `O=[N+]([O-])c1cccc2c1nnn2C(CO)OCCO` (stereo not given), the Kd is reported as > 4 mM (inactive). With `Cc1nn2c3ccccc3nc2n(Cc2ccccc2)c1=O` the Kd was > 4 mM (inactive). With `COc1cc2c(cc1OC)-c1nnnn1C(C)(C)C2` the Kd was > 4 mM (inactive). `NC(=O)c1ccccc1N1CCCCC1` was tested, and the Kd was > 4 mM (inactive). For `NC(=O)c1ccccc1NC(=O)C1CCCO1` (stereo not given), the Kd was > 4 mM (inactive). In the case of `NC(=O)C1CCN(c2nccc(C(F)(F)F)n2)CC1`, the Kd is reported as > 4 mM (inactive). With `CN1CCN(c2ncnc3nc[nH]c23)CC1` the Kd was > 4 mM (inactive). In the case of `CC1(C)CC(NC(=O)/C=C/C(=O)O)CC(C)(C)N1`, the Kd is reported as > 4 mM (inactive). For `CN(C)S(=O)(=O)c1ccccc1C#N`, the Kd was > 4 mM (inactive). `CN(C)S(=O)(=O)Nc1ccc(Br)cc1F` was tested, and the Kd was > 4 mM (inactive). For `CN1CCC(N2CCOCC2)CC1`, the Kd was > 4 mM (inactive). With `C=CCc1ccc2c(c1)OCO2` the Kd was > 4 mM (inactive). For `Cc1ccc(OCC(=O)N2CCOCC2)cc1C`, the Kd was “inactive”. In the case of `CCN1CCc2c(sc(N)c2C(N)=O)C1`, the Kd is reported as > 4 mM (inactive). For `N=C1/C(=C\c2ccccc2)C(=O)N=C2SC=NN12`, the Kd was > 4 mM (inactive).
